Data as given in patent publication US10093656B2, “Fused-ring or tricyclic aryl pyrimidine compound used as kinase inhibitor” (NANJING SANHOME PHARMACEUTICAL CO., LTD, priority 2015, dated 2018).

Assays:
[1] = target: T1, EGFR wild type (Homo sapiens, UniProt P00533); assay: Wild-type EGFR enzyme HTRF inhibition assay; type: biochemical; settings: 25 μM ATP, read-out: EGFR WT IC50
T1 construct: purchased Life technology (Madison, Wis.)
Method in brief: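 HTRF with 0.05 nM wild-type EGFR, 1 μM biotin-TK1 peptide, 25 μM ATP, 60 min at 23° C; detected with Eu-anti-TK1 antibody 2 nM and XL665 62.5 nM, 60 min at 23° C. Ten 3-fold doses, 300 nM to 0.015 nM final; IC50 by four-parameter fit of % inhibition.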

[2] = target: T2, EGFR T790M/L858R (Homo sapiens, UniProt P00533, L858R/T790M); assay: EGFR T790M/L858R enzyme HTRF inhibition assay; type: biochemical; settings: 20 μM ATP, read-out: EGFR L858R/T79M IC50
T2 construct: purchased Life technology (Madison, Wis.)
T2 sequence (P00533 25-1210 T790M/L858R): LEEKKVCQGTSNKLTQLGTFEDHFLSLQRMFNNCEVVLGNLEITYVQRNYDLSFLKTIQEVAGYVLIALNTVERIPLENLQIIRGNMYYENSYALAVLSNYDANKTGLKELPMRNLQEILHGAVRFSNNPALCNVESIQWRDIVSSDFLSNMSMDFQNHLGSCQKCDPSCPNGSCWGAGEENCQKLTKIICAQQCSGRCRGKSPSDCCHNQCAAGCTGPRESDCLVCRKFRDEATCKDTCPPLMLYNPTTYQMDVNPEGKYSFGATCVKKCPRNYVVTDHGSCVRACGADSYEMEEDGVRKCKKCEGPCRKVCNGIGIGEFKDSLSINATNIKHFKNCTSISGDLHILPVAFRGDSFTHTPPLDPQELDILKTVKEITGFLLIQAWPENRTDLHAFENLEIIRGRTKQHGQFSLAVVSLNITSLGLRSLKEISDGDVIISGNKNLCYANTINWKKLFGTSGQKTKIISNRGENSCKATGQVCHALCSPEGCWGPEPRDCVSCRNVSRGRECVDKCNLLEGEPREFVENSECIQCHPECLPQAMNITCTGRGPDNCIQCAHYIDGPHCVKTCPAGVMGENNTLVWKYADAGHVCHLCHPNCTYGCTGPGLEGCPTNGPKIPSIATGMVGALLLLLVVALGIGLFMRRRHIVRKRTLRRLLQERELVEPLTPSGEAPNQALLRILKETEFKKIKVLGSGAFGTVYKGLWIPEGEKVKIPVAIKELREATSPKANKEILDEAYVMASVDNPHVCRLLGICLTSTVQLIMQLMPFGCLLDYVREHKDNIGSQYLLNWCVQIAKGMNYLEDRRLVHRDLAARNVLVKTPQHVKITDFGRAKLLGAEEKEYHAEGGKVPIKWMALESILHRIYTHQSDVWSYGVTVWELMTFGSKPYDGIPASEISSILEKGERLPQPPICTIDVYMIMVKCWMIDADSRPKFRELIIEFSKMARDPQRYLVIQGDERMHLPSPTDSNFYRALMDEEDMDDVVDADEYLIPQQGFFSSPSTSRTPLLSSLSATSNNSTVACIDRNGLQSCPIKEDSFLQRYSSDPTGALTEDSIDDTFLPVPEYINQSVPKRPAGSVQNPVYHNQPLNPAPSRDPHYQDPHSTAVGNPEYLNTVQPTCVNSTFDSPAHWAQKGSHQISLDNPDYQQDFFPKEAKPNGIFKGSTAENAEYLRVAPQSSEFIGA
Method in brief: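 HTRF assay with 0.04 nM enzyme, 1 μM biotin-TK1 peptide and 20 μM ATP, 60 min at 23° C. Product detected with Eu-anti-TK1 antibody/XL665 (60 min at 23° C); compound at 10 doses, 300 nM to 0.015 nM final. IC50 from four-parameter fit.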

[3] = target: T3, EGFR d746-750/T790M (Homo sapiens, UniProt P00533, DEL746-750/T790M); assay: EGFR d746-750/T790M enzyme HTRF inhibition assay; type: biochemical; settings: 40 μM ATP
T3 construct: purchased Carna Biosciences (Japan)
T3 sequence (P00533 with tags, fused parts or gaps DEL746-750/T790M limits assumed): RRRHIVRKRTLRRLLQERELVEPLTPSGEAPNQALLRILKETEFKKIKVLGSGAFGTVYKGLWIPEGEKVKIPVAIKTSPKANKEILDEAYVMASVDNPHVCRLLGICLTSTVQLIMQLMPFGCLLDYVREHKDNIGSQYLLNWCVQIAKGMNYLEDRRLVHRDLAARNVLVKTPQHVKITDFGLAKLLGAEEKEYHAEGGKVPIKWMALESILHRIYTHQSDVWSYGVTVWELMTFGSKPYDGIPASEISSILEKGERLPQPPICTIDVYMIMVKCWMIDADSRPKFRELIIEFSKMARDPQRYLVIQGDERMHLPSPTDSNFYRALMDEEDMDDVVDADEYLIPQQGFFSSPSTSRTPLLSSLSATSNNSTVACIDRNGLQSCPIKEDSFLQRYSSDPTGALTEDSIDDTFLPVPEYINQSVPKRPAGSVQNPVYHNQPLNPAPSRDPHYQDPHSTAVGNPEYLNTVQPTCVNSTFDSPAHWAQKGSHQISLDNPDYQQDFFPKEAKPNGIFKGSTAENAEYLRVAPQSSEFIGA
Method in brief: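 0.025 nM enzyme with 1 μM biotin-TK1 peptide and 40 μM ATP, 60 min at 23° C; compound tested at 10 doses, 300 nM to 0.015 nM final. HTRF read (Eu-anti-TK1 antibody 2 nM, XL665 62.5 nM, 60 min at 23° C); IC50 from four-parameter fit of % inhibition.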

[4] = system: NCI-H1975 cells EGFR L858R/T790M; assay: NCI-H1975 cell viability assay (Cell Titer-Glo, 6 days); type: cell-based; settings: Homo sapiens, 144 h
Method in brief: (§1)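 A431 (EGFR WT) and NCI-H1975 (EGFR L858R/T790M) cells treated for 6 days at 37° C, in duplicate with 10 three-fold doses from 10 μM to 0.508 nM final. Viability read as CellTiter-Glo luminescence. IC50 from four-parameter fit of % inhibition.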

[5] = system: A431 cells EGFR WT; assay: A431 cell viability assay (Cell Titer-Glo, 6 days); type: cell-based, human; settings: for IC50: Homo sapiens, A-431, 144 h, A431 cells, 6 days; for A431:NCI-H1975 (ratio): ratio of cell IC50 A431 to NCI-H1975
Method in brief: as §1

[6] = system: NCI-H1975 lung cancer patient-derived xenograft (CDX); assay: Pharmacodynamics study in vivo, NCI-H1975 xenograft (CDX) model; set-up: species or system BALB/c nude mice; settings: AZD9291 5 mg/kg; for Tumor Volume (mm^3) 4 days: day 4, oral daily: compound 30 10 mg/kg, 33, 34, 40, 42, 43 20 mg/kg; for Tumor Volume (mm^3) 7 days: day 7, oral daily: compound 30 10 mg/kg, 33, 34, 40, 42, 43 20 mg/kg; for Tumor Volume (mm^3) 11 days: day 11, oral daily: compound 30 10 mg/kg, 33, 34, 40, 42, 43 20 mg/kg; for Tumor Volume (mm^3) 14 days: day 14, oral daily: compound 30 10 mg/kg, 33, 34, 40, 42, 43 20 mg/kg; for Tumor Volume (mm^3) 18 days: day 18, oral daily: compound 30 10 mg/kg, 33, 34, 40, 42, 43 20 mg/kg
Procedure: For example, after 21 days of administration, the tumor volume of the representative compounds 30, 33, 34, 40, 42 and 43 decreased from the beginning of about 149 mm^3 to 3-39 mm^3.
The pharmacological experiments in vivo were performed on BALB/c nude mice that subcutaneously implanted NCI-H1975 lung cancer […] xenograft (CDX).
BALB/c nude mice, female, 6-8 weeks, weighted about 18-22 grams, the mice were kept in a special pathogen-free environment, and in a single ventilation cage (5 mice per cage). The bedding and water of all the cages were disinfected before use. All animals were free to obtain standard certified commercial laboratory diets. A total of 100 mice were purchased from Beijing Vital for research. The tumor tissue (20-30 mm^3) was implanted subcutaneously in the […] of each mouse for tumor growth. The experiment was started when the average tumor volume reached about 150-200 mm^3. The test compound was orally administered daily (compound 30 was administered at 10 mg/kg, compound 33, 34, 40, 42 and 43 were administered at 20 mg/kg and compound AZD9291 was administered continuously for 21 days at 5 mg/kg, the data were shown in Table 3). The tumor volume was measured twice a week with a two-dimensional caliper and the volume was measured in cubic millimeters and calculated by the following formula: V=V=0.5 a×b2, where a and b were the major and minor diameters of the tumor, respectively.

[7] = system: human skin squamous cell A431 xenograft (CDX); assay: Selectivity study in vivo, A431 xenograft (CDX) model; set-up: species or system BALB/c nude mice; settings: Table 5 experiment, AZD9291 5 mg/kg; for Tumor Volume (mm^3) 4 days: day 4, oral once daily: 33, 34, 40, 42, 43 20 mg/kg; for Tumor Volume (mm^3) 11 days: day 11, oral once daily: 33, 34, 40, 42, 43 20 mg/kg; for Tumor Volume (mm^3) 18 days: day 18, oral once daily: 33, 34, 40, 42, 43 20 mg/kg
Procedure: In this model, the less inhibitory effect on the tumor, the better the selectivity in vivo.
The selective experiments in vivo were performed on BALB/c nude mice that subcutaneously implanted human skin squamous cell A431 xenograft (CDX).
BALB/c nude mice, female, 6-8 weeks, weighted about 18-20 grams, the mice were kept in a special pathogen-free environment and in a single ventilation cage (5 mice per cage). The bedding and water of all the cages were disinfected before use. All animals were free to obtain standard certified commercial laboratory diets. All mice were purchased from mice of Shanghai BK Laboratory Animal Co., LTD for research. The tumor tissue (20-30 mm^3) was implanted subcutaneously in the […] of each mouse for tumor growth. The experiment was started when the average tumor volume reached about 150-200 mm^3. The test compound was orally administered (compounds 17, 30, 37 and 38 were administered once daily at 20 mg/kg, the compound AZD9291 was administered once daily at 5 mg/kg, the compound CO-1686 was administered twice daily at 50 mg/kg, the compound Erlotinib was administered once daily at 75 mg/kg and the compound Afatinib was administered once daily at 7.5 mg/kg, 21 days of continuous administration. The data were shown in Table 4; compounds 33, 34, 40, 42 and 43 were administered once daily at 20 mg/kg and compound AZD9291 was administered once daily at5 mg/kg, 21 days of continuous administration. The tumor volume was measured twice a week with a two-dimensional caliper and the volume was measured in cubic millimeters and calculated by the following formula: V=V=0.5 a×b2, where a and b were the major and minor diameters of the tumor, respectively.

[8] = target: T4, INSR (Homo sapiens, UniProt P06213); assay: INSR enzyme HTRF inhibition assay; type: biochemical; settings: 35 μM ATP, read-out: INSR_IC50
T4 construct: purchased Life technology (Madison, Wis.)
T4 sequence (P06213 28-1382): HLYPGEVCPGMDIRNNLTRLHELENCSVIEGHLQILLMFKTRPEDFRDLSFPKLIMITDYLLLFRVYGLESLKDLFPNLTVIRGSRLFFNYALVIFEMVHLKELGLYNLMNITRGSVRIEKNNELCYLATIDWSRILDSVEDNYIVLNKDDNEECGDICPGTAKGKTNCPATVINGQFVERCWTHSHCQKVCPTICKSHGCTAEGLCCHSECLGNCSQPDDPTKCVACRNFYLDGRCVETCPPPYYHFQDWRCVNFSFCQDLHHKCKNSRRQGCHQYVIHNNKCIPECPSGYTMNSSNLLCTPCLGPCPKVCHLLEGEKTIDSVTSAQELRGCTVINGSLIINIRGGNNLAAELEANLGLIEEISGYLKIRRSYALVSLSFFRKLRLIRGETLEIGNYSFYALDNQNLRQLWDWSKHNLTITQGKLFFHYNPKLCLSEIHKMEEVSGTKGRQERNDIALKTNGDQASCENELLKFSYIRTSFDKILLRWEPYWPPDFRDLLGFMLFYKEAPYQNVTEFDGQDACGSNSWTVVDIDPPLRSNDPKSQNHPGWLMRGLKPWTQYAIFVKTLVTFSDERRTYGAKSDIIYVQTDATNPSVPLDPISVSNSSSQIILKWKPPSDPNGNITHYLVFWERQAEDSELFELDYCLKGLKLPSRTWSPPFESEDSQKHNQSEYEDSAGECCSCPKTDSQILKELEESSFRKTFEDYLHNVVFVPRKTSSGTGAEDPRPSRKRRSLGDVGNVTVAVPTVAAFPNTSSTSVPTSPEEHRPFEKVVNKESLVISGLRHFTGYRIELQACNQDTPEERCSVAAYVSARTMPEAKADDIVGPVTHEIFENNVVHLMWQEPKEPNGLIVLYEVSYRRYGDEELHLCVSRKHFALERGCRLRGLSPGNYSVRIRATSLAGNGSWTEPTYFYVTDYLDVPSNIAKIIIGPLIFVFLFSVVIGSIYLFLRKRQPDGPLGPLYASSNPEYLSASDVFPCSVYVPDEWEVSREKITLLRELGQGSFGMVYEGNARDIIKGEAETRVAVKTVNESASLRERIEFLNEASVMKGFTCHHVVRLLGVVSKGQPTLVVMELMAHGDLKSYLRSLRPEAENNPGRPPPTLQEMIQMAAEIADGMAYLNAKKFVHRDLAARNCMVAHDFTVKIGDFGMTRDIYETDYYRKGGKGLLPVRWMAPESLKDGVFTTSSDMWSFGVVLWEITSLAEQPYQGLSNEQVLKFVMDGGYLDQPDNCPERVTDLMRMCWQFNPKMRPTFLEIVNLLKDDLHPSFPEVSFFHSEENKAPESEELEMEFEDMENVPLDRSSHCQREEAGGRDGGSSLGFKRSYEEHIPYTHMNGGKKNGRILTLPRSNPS
Procedure: Enzyme: EGFR wild type, EGFR T790M/L858R, EGFR T790M and INSR were purchased from Life technology (Madison, Wis.), EGFR d746-750/T790M was purchased from Carna Biosciences (Japan).
HTRF Kit was purchased from Cis-Bio International which contained the Eu-labeled TK1 antibody, XL665 and biotin-labeled TK1 polypeptide substrates.
Detecting instrument: Envision (PerkinElmer).
The test compound was diluted 3-fold to obtain 10 doses of which the final concentration was from 300 nM to 0.015 nM.
INSR Enzyme Reaction Mixture System:
0.5 nM INSR, 1 μM biotin-TK1 peptide, 35 μM ATP enzyme buffer, a total of which was 10 μL. The reaction plate was white Proxiplate 384-Plus plate (PerkinElmer) and the mixture was reacted at 23° C. for 60 minutes.
Reaction Detection: 10 μL of detection reagent containing Antibody 2 nM and XL665 62.5 nM was added, and the reagent was incubated at 23° C. for 60 minutes. The plates were read by Envision.
The reading is converted to the suppression rate (%) by the following formula […]/(Max-Min)*100%. IC50 Data was measured by four-parameter curve fitting (Model 205 in XLFITS, IDBS).

T1 sequence (P00533 25-1210): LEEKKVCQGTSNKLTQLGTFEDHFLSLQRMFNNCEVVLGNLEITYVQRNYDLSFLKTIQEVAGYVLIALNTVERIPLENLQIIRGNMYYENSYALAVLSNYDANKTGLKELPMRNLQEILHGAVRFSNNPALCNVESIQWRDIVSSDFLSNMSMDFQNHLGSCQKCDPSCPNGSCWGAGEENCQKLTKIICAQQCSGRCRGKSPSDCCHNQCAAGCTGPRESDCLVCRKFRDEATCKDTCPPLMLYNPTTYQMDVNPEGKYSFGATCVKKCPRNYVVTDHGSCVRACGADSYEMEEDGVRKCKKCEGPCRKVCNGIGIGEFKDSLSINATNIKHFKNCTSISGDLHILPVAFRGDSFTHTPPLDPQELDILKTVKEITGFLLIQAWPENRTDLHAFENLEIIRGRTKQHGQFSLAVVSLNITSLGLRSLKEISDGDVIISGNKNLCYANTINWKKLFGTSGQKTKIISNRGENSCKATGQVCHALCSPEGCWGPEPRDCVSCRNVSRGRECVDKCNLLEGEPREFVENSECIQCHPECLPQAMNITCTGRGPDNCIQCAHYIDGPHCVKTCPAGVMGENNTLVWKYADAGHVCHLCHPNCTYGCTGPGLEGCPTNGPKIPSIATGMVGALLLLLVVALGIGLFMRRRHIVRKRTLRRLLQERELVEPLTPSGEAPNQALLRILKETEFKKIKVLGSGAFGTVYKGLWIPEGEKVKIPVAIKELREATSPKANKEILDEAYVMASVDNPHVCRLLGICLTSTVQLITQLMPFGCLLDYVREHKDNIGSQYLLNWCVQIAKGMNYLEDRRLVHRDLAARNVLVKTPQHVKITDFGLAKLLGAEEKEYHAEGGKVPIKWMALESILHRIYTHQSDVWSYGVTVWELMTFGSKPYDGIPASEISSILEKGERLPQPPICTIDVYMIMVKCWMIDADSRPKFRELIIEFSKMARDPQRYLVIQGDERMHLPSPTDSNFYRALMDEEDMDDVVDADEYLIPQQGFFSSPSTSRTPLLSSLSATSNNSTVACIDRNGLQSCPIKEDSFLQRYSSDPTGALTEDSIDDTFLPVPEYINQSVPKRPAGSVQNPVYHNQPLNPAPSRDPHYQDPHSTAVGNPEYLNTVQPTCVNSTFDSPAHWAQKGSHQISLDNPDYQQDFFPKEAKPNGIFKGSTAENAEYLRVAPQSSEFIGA

SMILES: C=CC(=O)Nc1cc(Nc2ncc(F)c(-c3c4n(c5cc(Cl)ccc35)CCOC4)n2)c(OC)cc1N(C)CCN(C)C [Embodiment 34, N-(5-((4-(7-Chloro-3,4-dihydro-1H-[1,4]oxazino[4,3-a]indol-10-yl)-5-fluoropyrimidin-2-yl)amino)-2-((2-(dimethylamino)ethyl)(methyl)amino)-4-methoxyphenyl)acrylamide]
- IC50 [1]: 2 nM
- IC50 [2]: 0.8 nM
- IC50 [3]: 0.6 nM
- IC50 [4]: 68 nM
- IC50 [5]: 2100 nM
- A431:NCI-H1975 (ratio) [5]: 31
- Tumor Volume (mm^3) 4 days [6]: 102 mm^3
- Tumor Volume (mm^3) 7 days [6]: 80 mm^3
- Tumor Volume (mm^3) 11 days [6]: 70 mm^3
- Tumor Volume (mm^3) 14 days [6]: 59 mm^3
- Tumor Volume (mm^3) 18 days [6]: 35 mm^3
- Tumor Volume (mm^3) 4 days [7]: 237 mm^3
- Tumor Volume (mm^3) 11 days [7]: 646 mm^3
- Tumor Volume (mm^3) 18 days [7]: 1357 mm^3

SMILES: C=CC(=O)Nc1cc(Nc2nccc(-c3c4n(c5cc(F)ccc35)CCOC4)n2)c(OC)cc1N(C)CCN(C)C [Embodiment 38, N-(2-((2-(Dimethylamino)ethyl)(methyl)amino)-5-((4-(7-fluoro-3,4-dihydro-1H-[1,4]oxazino[4,3-a]indol-10-yl)pyrimidin-2-yl)amino)-4-methoxyphenyl)acrylamide]
- IC50 [1]: 0.6 nM
- IC50 [2]: 0.09 nM
- IC50 [3]: 0.1 nM
- IC50 [4]: 7 nM
- IC50 [5]: 317 nM
- A431:NCI-H1975 (ratio) [5]: 45
- IC50 [8]: 310 nM

SMILES: C=CC(=O)Nc1cc(Nc2nccc(-c3c4n(c5ccccc35)CCOC4)n2)c(OC)cc1N(C)CC(C)(C)N(C)C [Embodiment 25, N-(5-((4-(3,4-Dihydro-1H-[1,4]oxazino[4,3-a]indol-10-yl)pyrimidin-2-yl)amino)-2-((2-(dimethylamino)-2-methylpropyl)(methyl)amino)-4-methoxyphenyl)acrylamide]
- IC50 [1]: 0.81 nM
- IC50 [2]: 0.2 nM
- IC50 [3]: 0.13 nM
- IC50 [4]: 4 nM
- IC50 [5]: 248 nM
- A431:NCI-H1975 (ratio) [5]: 62
- IC50 [8]: 333 nM

SMILES: C=CC(=O)Nc1cc(Nc2nccc(-c3cn4c5c(cccc35)OCCC4)n2)c(OC)cc1N(C)CCN(C)C [Embodiment 40, N-(5-((4-(3,4-Dihydro-2H-[1,4]oxazepino[2,3,4-hi]indol-7-yl)pyrimidin-2-yl)amino)-2-((2-(dimethylamino)ethyl)(methyl)amino)-4-methoxyphenyl)acrylamide]
- IC50 [1]: 0.8 nM
- IC50 [2]: 0.3 nM
- IC50 [3]: 0.4 nM
- IC50 [4]: 23 nM
- IC50 [5]: 279 nM
- A431:NCI-H1975 (ratio) [5]: 12
- Tumor Volume (mm^3) 4 days [6]: 108 mm^3
- Tumor Volume (mm^3) 7 days [6]: 85 mm^3
- Tumor Volume (mm^3) 11 days [6]: 91 mm^3
- Tumor Volume (mm^3) 14 days [6]: 91 mm^3
- Tumor Volume (mm^3) 18 days [6]: 84 mm^3
- Tumor Volume (mm^3) 4 days [7]: 212 mm^3
- Tumor Volume (mm^3) 11 days [7]: 445 mm^3
- Tumor Volume (mm^3) 18 days [7]: 895 mm^3

SMILES: C=CC(=O)Nc1cc(Nc2nccc(-c3c4n(c5ccccc35)CCOC4)n2)c(OC)cc1N(C)CCN(C)C [Embodiment 17, N-(5-((4-(3,4-Dihydro-1H-[1,4]oxazino[4,3-a]indol-10-yl)pyrimidin-2-yl)amino)-2-((2-(dimethylamino)ethyl)(methyl)amino)-4-methoxyphenyl)acrylamide]
- IC50 [1]: 0.89 nM
- IC50 [2]: 0.21 nM
- IC50 [3]: 0.18 nM
- IC50 [4]: 4.1 nM
- IC50 [5]: 777 nM
- A431:NCI-H1975 (ratio) [5]: 189.5
- IC50 [8]: 341 nM

SMILES: C=CC(=O)Nc1cc(Nc2nccc(-c3c4n(c5ccc(F)cc35)CCOC4)n2)c(OC)cc1N(C)CCN(C)C [Embodiment 37, N-(2-((2-(Dimethylamino)ethyl)(methyl)amino)-5-((4-(8-fluoro-3,4-dihydro-1H-[1,4]oxazino[4,3-a]indol-10-yl)pyrimidin-2-yl)amino)-4-methoxyphenyl)acrylamide]
- IC50 [1]: 0.35 nM
- IC50 [2]: 0.1 nM
- IC50 [3]: 0.1 nM
- IC50 [4]: 12.5 nM
- IC50 [5]: 303 nM
- A431:NCI-H1975 (ratio) [5]: 24
- IC50 [8]: 440 nM

SMILES: C=CC(=O)Nc1cc(Nc2nccc(-c3cn4c5c(cccc35)OC3(CC3)C4)n2)c(OC)cc1N(C)CCN(C)C [Embodiment 42, N-(5-((4-(3H-Spiro[[1,4]oxazino[2,3,4-hi]indole-2,1′-cyclopropan]-6-yl)pyrimidin-2-yl)amino)-2-((2-(dimethylamino)ethyl)(methyl)amino)-4-methoxyphenyl)acrylamide]
- IC50 [1]: 0.8 nM
- IC50 [2]: 0.2 nM
- IC50 [3]: 0.2 nM
- IC50 [4]: 177 nM
- IC50 [5]: 846 nM
- A431:NCI-H1975 (ratio) [5]: 4.8
- Tumor Volume (mm^3) 4 days [6]: 85 mm^3
- Tumor Volume (mm^3) 7 days [6]: 69 mm^3
- Tumor Volume (mm^3) 11 days [6]: 57 mm^3
- Tumor Volume (mm^3) 14 days [6]: 47 mm^3
- Tumor Volume (mm^3) 18 days [6]: 20 mm^3
- Tumor Volume (mm^3) 4 days [7]: 226 mm^3
- Tumor Volume (mm^3) 11 days [7]: 424 mm^3
- Tumor Volume (mm^3) 18 days [7]: 661 mm^3
